From article PMC12867150, “A fungi-derived cyclic peptide enhances Th9-mediated antitumor immunity by targeting ZAP70 and SREBP1” (The Journal of Clinical Investigation, 2025) come the findings set out here.

“And” between values parts separate entries of the source, which are not always exact repeats. Equal entries are not always repeated.

One test relates to B16-OVA melanoma. The test is described as follows: Adoptive transfer of OT-II Th9 cells, B16-OVA tumor growth in C57BL/6 mice (Figure 2A, 2H). Format: in vivo. The note with it: EpA-Th9 cells vs conventional Th9 cells; result in words. From the text: (A) Schematic of the therapeutic model. C57BL/6 mice were subcutaneously inoculated with B16-OVA melanoma cells (5 × 10^5) and preconditioned with cyclophosphamide (CTX) on day 4. […] (B–G) Flow-cytometric analysis of transferred CD45.1^+ OT-II Th9 cells (B and C) and endogenous CD4^+ (D and E) and CD8^+ T cells (F and G) in spleens and tumors, showing frequencies and absolute numbers (n = 4 mice per group). (H) Tumor growth curves in B16-OVA–bearing C57BL/6 or β2-microglobulin–deficient (β2m-KO) mice following transfer of control or EpA-treated OT-II Th9 cells (n = 4 mice per group). (I) C57BL/6 mice bearing B16-OVA tumors were treated with control or EpA-induced OT-II Th9 cells (2 × 10^6, i.v., day 5), followed by anti–PD-1 antibody (200 μg, i.p.) on day 7, and (100 μg, i.p.) on day 10 and 12. Tumor growth is shown with individual trajectories (n = 6 mice per group). Statistical analysis was performed using 2-tailed unpaired Student’s t test ([…], B–G) or 1-way ANOVA with Tukey’s post hoc test (H and I). All data are presented as the mean ± SEM. *P < 0.05, **P < 0.01, ***P < 0.001. Schematic in A created using BioRender (https://Biorender.com).
C57BL/6 mice were subcutaneously injected with 5 × 10^5 B16-OVA melanoma cells. […]

For a further test, the system named is endogenous CD4+ T cells. The test is described as follows: Cytokines and granzyme B/perforin in endogenous CD4+ T cells (Figure 3I, S4G-I). Format: in vivo, mouse. Also on record: TNF-α expression / IFN-γ expression / Expression of IFN-g of endogenous CD4⁺ T cells in tumor / Expression of TNF-α of endogenous CD4⁺ T cells in tumor: unit not given here. The note with it: for Expression of IFN-g of endogenous CD4⁺ T cells in tumor: Supplemental Figure 4G; for Expression of TNF-α of endogenous CD4⁺ T cells in tumor: Supplemental Figure 4H; for Expression of GzmB+Perforin+ of endogenous CD4⁺ T cells in tumor: Supplemental Figure 4I. The method, then: C57BL/6 mice were subcutaneously injected with 5 × 10^5 B16-OVA melanoma cells. Five days after tumor implantation, mice received an intravenous infusion of 2 × 10^6 in vitro–differentiated Th9 cells (cultured for 5 days), which were derived from OT-II CD45.1 donor mice, accompanied by 4 × 10^5 OVA peptide–pulsed DCs via the tail vein. To enhance T cell engraftment and facilitate lymphodepletion, a single intraperitoneal injection of cyclophosphamide (200 mg/kg, Sigma, catalog C0768) was administered 1 day prior to T cell transfer. Mice were euthanized at designated time points for the collection and analysis of spleens, tumor-draining lymph nodes, and tumor tissues.
Details regarding staining panels (human and mouse), reagents (including clones and catalog numbers), acquisition settings, compensation/controls, and analysis procedures are provided in Supplemental Methods.
BioLegend, Cat. No. 422301 or Mouse TruStain FcX™, BioLegend, Cat. No. 101319) for 10 minutes at 4°C. For surface marker detection, cells were stained with fluorochrome-conjugated monoclonal antibodies in 96-well V-bottom plates and incubated on ice for 30 minutes. After staining, cells were washed twice and resuspended in FACS buffer for analysis.
Prior to intracellular cytokine staining, cells were restimulated for 4 hours with PMA (Absin, Cat. No. abs9107), ionomycin (Sigma-Aldrich, Cat. No. I0634), and brefeldin A (MedChemExpress, Cat. No. HY-16592). For intracellular cytokine staining, cells were first surface-stained as described above, then fixed and permeabilized using the BD Cytofix/Cytoperm™ kit (BD Biosciences, Cat. No. 554714) according to the manufacturer ’s protocol. Intracellular proteins were stained with directly conjugated antibodies targeting IL-9, IL-17a, IL-4, IFN-γ, TNF-α, FOXP3, p-ZAP70, Perforin, and […]
Antibodies used for mouse samples included those against IL-9 (PE, clone RM9A4, Biolegend, Cat. No. 514104), IFN-γ (PE, clone XMG1.2, Biolegend, Cat. No.
Cat. No. 103138), CD4 (APC/Cy7, clone E-AB-F1353UJ, Elabscience, Cat. No.
AF18028), CD8α (PerCP/Cy5.5, clone E-AB-F1104UJ, Elabscience, Cat. No. […]
clone E-AB-F1187UH, Elabscience, Cat. No. AF19854), TNF-α (BV421, clone MP6-XT22, Biolegend, Cat. No. 506328), FOXP3 (PE, clone FJK-16s, eBioscience, Cat. No.
Perforin (APC, clone S16009A, Biolegend, Cat. No. 154303) and Granzyme B (APC, clone QA16A02, Biolegend, Cat. No. 372203). For human samples, antibodies against CD4 (PerCP/Cy5.5, clone RPA-T4, Biolegend, Cat. No. 300530; APC/Cy7, clone OKT4, Biolegend, Cat. No. 317418), CD19 (APC/Cy7, clone SJ25C1, Biolegend, Cat.
No. 363009), IFN-γ (PE, clone 4S.B3, Biolegend, Cat. No. 502509), IL-9 (PE, clone

Where [1] appears, read: endogenous CD4+, spleen, individual mice, n = 4.

Regarding anteiso-C15 Leu7 surfactin [EpA], in the test on B16-OVA melanoma, the tumor control entry is “significantly improved tumor control”. Further, the “GzmB+ PRF1+ gate number” value in the test with endogenous CD4+ T cells (CD4+ T cells in tumors, representative flow plot, Figure S4I) is recorded as 5.26. Further, in the test with endogenous CD4+ T cells (setting [1]), the “GzmB and Perforin expression” value is 8.38 and 8.7 and 5.23 and 4.52; the IFN-γ expression is 10.3 and 15 and 14.6 and 10.5; the TNF-α expression was 13.3 and 10.2 and 13.4 and 20.6. Further, in the test on endogenous CD4+ T cells (spleen, result in words), the “TNF-α expression of CD4+ T cells” value was “remained unchanged” and the “granzyme B+ perforin+ CD4+ T cells” value is listed as “pronounced increase”. In the test with endogenous CD4+ T cells (replicate 1), the “Expression of IFN-g of endogenous CD4⁺ T cells in tumor” value (“Expression of IFN-g … in tumor” below) was determined as 193, the “Expression of TNF-α of endogenous CD4⁺ T cells in tumor” value (from here on “Expression of TNF-α … in tumor”) is listed as 483 and the “Expression of GzmB+Perforin+ of endogenous CD4⁺ T cells in tumor” value (shortened to “Expression of GzmB+Perforin+ … in tumor”) was found to be 5.25. In the test with endogenous CD4+ T cells (replicate 2), the “Expression of IFN-g … in tumor” value was 141, the “Expression of TNF-α … in tumor” value is reported as 294 and the “Expression of GzmB+Perforin+ … in tumor” value was 5.18. Moreover, in the test with endogenous CD4+ T cells (replicate 3), the “Expression of IFN-g … in tumor” value is given as 342, the “Expression of TNF-α … in tumor” value was 665 and the “Expression of GzmB+Perforin+ … in tumor” value came to 5.26. In the test with endogenous CD4+ T cells (replicate 4), the “Expression of IFN-g … in tumor” value is on record as 291, the “Expression of TNF-α … in tumor” value is listed as 542 and the “Expression of GzmB+Perforin+ … in tumor” value was found to be 9.14. Moreover, the “TNF-α expression of CD4+ T cells” value in the test on endogenous CD4+ T cells (tumors, result in words) is given as “upregulated TNF-α expression”.
